Source: US9957546B2, “Vivo detection of phospholipase activation” (THE TRUSTEES OF THE UNIVERSITY OF PENNSYLVANIA, priority 2008, dated 2018)
Blank lines part the entries; values can stand above or below the molecule they belong to.

Experiments:
PC-PLC [1] = target: PC-PLC (Bacillus cereus, UniProt P09598)
Protocol: Phospholipase (0.5 to 5 units) are added to 1 μM fluorophore-BHQ in PtdCho vesicles_(MF=0.05) to yield a final volume of 100 μL. Initial velocities are measured as a function of enzyme concentration. For bulk kinetics, an enzyme concentration that gives a linear response is chosen. The lipid dispersions is diluted in buffer such that the fluorophore-BHQ concentration varies from 0.3-3 μM. The temperature is held at 37° C. and phospholipase added to a total volume of 100 μL. The released fluorescence is measured and the initial velocities recorded as a function of bulk lipid concentration. A Lineweaver-Burke plot of 1/V0 vs 1/[S] gives a straight line with […] and y intercept of 1/Vmax. For interfacial kinetics, lipid dispersions of fluorophore-BHQ and PtdCho are diluted in Triton X-100 with the total lipid concentration held at 20 μM. The ratios of fluorophore-BHQ to PtdCho are held constant, but varied relative to the MF of Triton with a total MF of fluorophore-BHQ of =0.01-0.05). Initial velocities are recorded as a function of concentration, and kinetic parameters are calculated.
Activity, in RFU/min/mg, was measured as a function of D609 concentration after the addition of 0.5 U PC-PLC (FIG. 2D).

PC-PLC [2] = conditions: Amplex Red, resorufin fluorescence
From the text: To validate the presence of PC-PLC activity in DU145 tumor xenografts, the Amplex Red PC-PLC assay kit (Molecular Probes) was used to measure PC-PLC activity in extracts of excised tumors.

[3] = Incorporation of Pyro-PL into PtdCho vesicles (self quenching/aggregation); format: physicochemical; conditions: 1 μM Pyro-PL, [PtdCho]>200 μM
Protocol: A measured amount of Pyro-PL-BHQ or Pyro-PL (ε=110,000 M^−1 cm^−1 at 410 nm) was combined with PtdCho (chicken egg, Avanti Polar Lipids, Inc., Alabaster, Ala.) in chloroform and dried under a stream of nitrogen.
In order to determine the mole fraction (MF) at which all fluorophore can be assumed to be completely incorporated and intercalated into the PtdCho vesicles, an experiment was conducted in which the concentration of PtdCho was varied while Pyro-PL concentration was held constant at 1 μM (FIG. 4A). The fluorescence intensity increases as the Pyro-PL disperses into the PtdCho vesicles. The fluorescence plateaus at the point at which aggregation is negligible.

[4] = In vivo distribution of Pyro-PL (Maestro spectral deconvolution, ex vivo IVIS organ imaging); set-up: species or system mice
Protocol: Methods for separation of probe fluorescence and autofluorescence have been developed that result in a more accurate detection of in vivo probe fluorescence. In FIG. 11, mice injected with the permanently fluorescent Pyro-PL are imaged with the CRI Maestro System, and the resulting images resolved into probe and autofluorescence on the basis of emission spectrum deconvolution. These images confirm that Pyro-PL localizes in the tumor within minutes, and persists for about 3 hours, consistent with FIGS. 12A and 13A. By 2 hours, the probe is also being removed from circulation, with concentration first in the liver, and then in the intestine for excretion in the stool.

[5] = Tolerability of Pyro-PL in mice; format: in vivo
[6] = Quenching of Pyro fluorescence (fluorescence emission spectra); format: physicochemical
From the text: In Pyro-PL-BHQ, BHQ acts as an effective quencher of Pyro fluorescence, reducing the fluorescence emission relative to Pyro-PL between 25-fold (for λex=675, λem=725 nm) and 45-fold (for λex=418, λem=695 nm) (FIG. 14).

DU145 prostate cells = assay: Cell uptake and in situ activation, laser confocal microscopy; format: cell-based, human; conditions: 10 mM PB, 6 h

Sequence of PC-PLC (Bacillus cereus, UniProt P09598) (P09598 39-283 limits assumed): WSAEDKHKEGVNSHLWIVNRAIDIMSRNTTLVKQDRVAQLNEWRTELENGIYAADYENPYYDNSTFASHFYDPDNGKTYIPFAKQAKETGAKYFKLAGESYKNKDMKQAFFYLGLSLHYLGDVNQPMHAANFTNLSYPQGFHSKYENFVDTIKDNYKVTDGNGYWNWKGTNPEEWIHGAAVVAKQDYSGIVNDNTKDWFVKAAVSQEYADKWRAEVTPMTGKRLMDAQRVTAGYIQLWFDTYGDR

Molecule: S=C([S-])OC1CC2CC1C1CCCC21.[K+] (stereo not drawn) [D609]
Inhibition of PC-PLC hydrolysis of Pyro-PL-BHQ at 500 μM D609 (PC-PLC [1]; 500 μM D609, 0.5 U PC-PLC): Complete inhibition | Fluorescence release from Pyro-PL-BHQ/PtdCho vesicles in presence of inhibitor (PC-PLC [1]; FIG. 3A): inhibited | IC50 (PC-PLC [1]; read-out: IC50 of inhibition of PC-PLC activity toward Pyro-PL-BHQ, 1 μM Pyro-PL-BHQ, MF 0.003 in egg-PtdCho dispersions, 0.5 U PC-PLC): 34 ± 8 µM | Ki (PC-PLC [1]; read-out: Ki (x-intercept of Km(app)/Vmax(app) vs. D609), Lineweaver-Burke plot of inhibition using 8, 50, 100 μM D609): 250 µM | PC-PLC activity in tumor extracts as a function of D609 concentration (PC-PLC [2]): decrease as a function of D609 concentration

Molecule: C=Cc1c(C)c2cc3nc(c4c5[nH]c(cc6nc(cc1[nH]2)C(C)=C6CC)c(C)c5C(=O)C4)C(CCC(=O)OC(COC(=O)CCCCCCCCCCCCCCC)COP(=O)(O)OCCN)C3C (stereo not drawn) [Pyro-PL]
Pyro-PL mole fraction (MF) at which fluorescence plateaus (aggregation negligible) [3]: < 0.005 | organ fluorescence at 2 h ([4]; 2 h): majority of the fluorescence appears in the liver | organ fluorescence ex vivo at 24 h ([4]; IVIS, 24 h): major fluorescence persisted in the liver, kidney and digestive tract | time of accumulation in the tumor ([4]; Maestro system): ≤ 10 min | tolerability [5]: well tolerated by mice

quenching efficiency (second Pyro as acceptor) [6]: ~4 fold
Molecule: C=Cc1c(C)c2cc3nc(c4c5[nH]c(cc6nc(cc1[nH]2)C(C)=C6CC)c(C)c5C(=O)C4)C(CCC(=O)NCCCCCC(=O)OCC(COP(=O)([O-])OCC[N+](C)(C)C)OC(=O)CCCCCNC(=O)CCC1c2nc(cc4[nH]c(cc5nc(cc6[nH]c7c2CC(=O)c7c6C)C(CC)=C5C)c(C=C)c4C)C1C)C3C (stereo not drawn) [PyroPyro-PL]

Molecule: phenylbutyrate [PB]
effect on Pyro-PL-BHQ fluorescence in cells (DU145 prostate cells): fluorescence is increased
